The first assay concerns H3255. The assay can be described thus: relative viability (nuclei count vs DMSO), 5 days (fraction); higher = more cells survive. To be noted: first compound 2.53 µM. In short, it runs like this:
(§1)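 Values are medians from duplicate plates. Each reflects relative viability, defined as the nuclei count of treated wells over that of vehicle wells. Lung cancer cell lines in 1536-well plates were pin-tool dosed one day after seeding with one drug alone or with a fixed anchor-drug dose plus five library-drug doses (not always all listed) in √10 steps, then fixed, stained and imaged at 4× after 5 days.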
The molecule `Nc1cccc2c1CN(C1CCC(=O)NC1=O)C2=O` (stereo not given) [Lenalidomide] + CC(=O)c1c(C)c2cnc(Nc3ccc(N4CCNCC4)cn3)nc2n(C2CCCC2)c1=O [Palbociclib] (partner 0.5 µM) yielded a relative viability of 0.314.

For `Nc1cccc2c1CN(C1CCC(=O)NC1=O)C2=O` (stereo not given) [Lenalidomide] + O=C(CCCCCCC(=O)Nc1ccccc1)NO [Vorinostat] (partner 1 µM), the relative viability turned out to be 0.823.

In turn, `Nc1cccc2c1CN(C1CCC(=O)NC1=O)C2=O` (stereo not given) [Lenalidomide] + COc1cccc2cc(-c3nc([C@H]4CC[C@H](C(=O)O)CC4)n4ncnc(N)c34)[nH]c12 [OSI-027] (partner 0.5 µM) returned a relative viability of 0.55.

The same assay, now with this note: first compound 8 µM.
Molecule `Nc1cccc2c1CN(C1CCC(=O)NC1=O)C2=O` (stereo not given) [Lenalidomide] + N=C(N)NC(=N)NCCc1ccccc1 [Phenformin] (partner 250 µM) returned a relative viability of 0.386.

On to `Nc1cccc2c1CN(C1CCC(=O)NC1=O)C2=O` (stereo not given) [Lenalidomide] + Cc1cc(Nc2cc(N3CCN(C)CC3)nc(Sc3ccc(NC(=O)C4CC4)cc3)n2)n[nH]1 [Tozasertib] (partner 0.1 µM), for which the relative viability came to 0.536.

In turn, `Nc1cccc2c1CN(C1CCC(=O)NC1=O)C2=O` (stereo not given) [Lenalidomide] + CC(=O)c1c(C)c2cnc(Nc3ccc(N4CCNCC4)cn3)nc2n(C2CCCC2)c1=O [Palbociclib] (partner 0.5 µM) returned a relative viability of 0.314.

On to `Nc1cccc2c1CN(C1CCC(=O)NC1=O)C2=O` (stereo not given) [Lenalidomide] + O=C(CCCCCCC(=O)Nc1ccccc1)NO [Vorinostat] (partner 1 µM), for which the relative viability came to 0.862.

In turn, `Nc1cccc2c1CN(C1CCC(=O)NC1=O)C2=O` (stereo not given) [Lenalidomide] + COc1cccc2cc(-c3nc([C@H]4CC[C@H](C(=O)O)CC4)n4ncnc(N)c34)[nH]c12 [OSI-027] (partner 0.5 µM) gave a relative viability of 0.516.

A further assay has as its system HARA. The assay is described as above. To be noted: first compound 0.253 µM. Put shortly: as §1
Regarding `Nc1cccc2c1CN(C1CCC(=O)NC1=O)C2=O` (stereo not given) [Lenalidomide] + N=C(N)NC(=N)NCCc1ccccc1 [Phenformin] (partner 250 µM), the relative viability came to 0.414.

For the molecule `Nc1cccc2c1CN(C1CCC(=O)NC1=O)C2=O` (stereo not given) [Lenalidomide] + Cc1cc(Nc2cc(N3CCN(C)CC3)nc(Sc3ccc(NC(=O)C4CC4)cc3)n2)n[nH]1 [Tozasertib] (partner 0.1 µM), the relative viability amounted to 0.0944.

`Nc1cccc2c1CN(C1CCC(=O)NC1=O)C2=O` (stereo not given) [Lenalidomide] + CC(=O)c1c(C)c2cnc(Nc3ccc(N4CCNCC4)cn3)nc2n(C2CCCC2)c1=O [Palbociclib] (partner 0.5 µM): the relative viability is 0.253.

On to `Nc1cccc2c1CN(C1CCC(=O)NC1=O)C2=O` (stereo not given) [Lenalidomide] + O=C(CCCCCCC(=O)Nc1ccccc1)NO [Vorinostat] (partner 1 µM), for which the relative viability stood at 0.61.

As to `Nc1cccc2c1CN(C1CCC(=O)NC1=O)C2=O` (stereo not given) [Lenalidomide] + COc1cccc2cc(-c3nc([C@H]4CC[C@H](C(=O)O)CC4)n4ncnc(N)c34)[nH]c12 [OSI-027] (partner 0.5 µM), the relative viability turned out to be 0.612.

The assay is the same for the next values; noted with them: first compound 2.53 µM.
`Nc1cccc2c1CN(C1CCC(=O)NC1=O)C2=O` (stereo not given) [Lenalidomide] + N=C(N)NC(=N)NCCc1ccccc1 [Phenformin] (partner 250 µM) yielded a relative viability of 0.595.

With `Nc1cccc2c1CN(C1CCC(=O)NC1=O)C2=O` (stereo not given) [Lenalidomide] + Cc1cc(Nc2cc(N3CCN(C)CC3)nc(Sc3ccc(NC(=O)C4CC4)cc3)n2)n[nH]1 [Tozasertib] (partner 0.1 µM), the relative viability stood at 0.133.

On to `Nc1cccc2c1CN(C1CCC(=O)NC1=O)C2=O` (stereo not given) [Lenalidomide] + CC(=O)c1c(C)c2cnc(Nc3ccc(N4CCNCC4)cn3)nc2n(C2CCCC2)c1=O [Palbociclib] (partner 0.5 µM), for which the relative viability is 0.293.

Molecule `Nc1cccc2c1CN(C1CCC(=O)NC1=O)C2=O` (stereo not given) [Lenalidomide] + O=C(CCCCCCC(=O)Nc1ccccc1)NO [Vorinostat] (partner 1 µM) yielded a relative viability of 0.628.

In the case of `Nc1cccc2c1CN(C1CCC(=O)NC1=O)C2=O` (stereo not given) [Lenalidomide] + COc1cccc2cc(-c3nc([C@H]4CC[C@H](C(=O)O)CC4)n4ncnc(N)c34)[nH]c12 [OSI-027] (partner 0.5 µM), the relative viability was 0.564.

Staying with this assay, now noted: first compound 8 µM.
On to `Nc1cccc2c1CN(C1CCC(=O)NC1=O)C2=O` (stereo not given) [Lenalidomide] + N=C(N)NC(=N)NCCc1ccccc1 [Phenformin] (partner 250 µM), for which the relative viability was 0.417.

For the molecule `Nc1cccc2c1CN(C1CCC(=O)NC1=O)C2=O` (stereo not given) [Lenalidomide] + Cc1cc(Nc2cc(N3CCN(C)CC3)nc(Sc3ccc(NC(=O)C4CC4)cc3)n2)n[nH]1 [Tozasertib] (partner 0.1 µM), the relative viability was found to be 0.103.

Turning to `Nc1cccc2c1CN(C1CCC(=O)NC1=O)C2=O` (stereo not given) [Lenalidomide] + CC(=O)c1c(C)c2cnc(Nc3ccc(N4CCNCC4)cn3)nc2n(C2CCCC2)c1=O [Palbociclib] (partner 0.5 µM), the relative viability stood at 0.253.

Turning to `Nc1cccc2c1CN(C1CCC(=O)NC1=O)C2=O` (stereo not given) [Lenalidomide] + O=C(CCCCCCC(=O)Nc1ccccc1)NO [Vorinostat] (partner 1 µM), the relative viability stood at 0.512.

Regarding `Nc1cccc2c1CN(C1CCC(=O)NC1=O)C2=O` (stereo not given) [Lenalidomide] + COc1cccc2cc(-c3nc([C@H]4CC[C@H](C(=O)O)CC4)n4ncnc(N)c34)[nH]c12 [OSI-027] (partner 0.5 µM), the relative viability stood at 0.534.

For a further assay, the system named is HCC-15. The description is as above. The note with it: first compound 0.253 µM. Put shortly: as §1
With `Nc1cccc2c1CN(C1CCC(=O)NC1=O)C2=O` (stereo not given) [Lenalidomide] + N=C(N)NC(=N)NCCc1ccccc1 [Phenformin] (partner 250 µM), the relative viability is 0.474.

`Nc1cccc2c1CN(C1CCC(=O)NC1=O)C2=O` (stereo not given) [Lenalidomide] + Cc1cc(Nc2cc(N3CCN(C)CC3)nc(Sc3ccc(NC(=O)C4CC4)cc3)n2)n[nH]1 [Tozasertib] (partner 0.1 µM) yielded a relative viability of 0.352.

Take `Nc1cccc2c1CN(C1CCC(=O)NC1=O)C2=O` (stereo not given) [Lenalidomide] + CC(=O)c1c(C)c2cnc(Nc3ccc(N4CCNCC4)cn3)nc2n(C2CCCC2)c1=O [Palbociclib] (partner 0.5 µM): the relative viability amounted to 0.685.

Turning to `Nc1cccc2c1CN(C1CCC(=O)NC1=O)C2=O` (stereo not given) [Lenalidomide] + O=C(CCCCCCC(=O)Nc1ccccc1)NO [Vorinostat] (partner 1 µM), the relative viability came out at 0.826.

Consider `Nc1cccc2c1CN(C1CCC(=O)NC1=O)C2=O` (stereo not given) [Lenalidomide] + COc1cccc2cc(-c3nc([C@H]4CC[C@H](C(=O)O)CC4)n4ncnc(N)c34)[nH]c12 [OSI-027] (partner 0.5 µM), for which the relative viability came to 0.705.

Still in this assay, the particulars now being: first compound 0.8 µM.
Molecule `Nc1cccc2c1CN(C1CCC(=O)NC1=O)C2=O` (stereo not given) [Lenalidomide] + N=C(N)NC(=N)NCCc1ccccc1 [Phenformin] (partner 250 µM) returned a relative viability of 0.489.

In turn, `Nc1cccc2c1CN(C1CCC(=O)NC1=O)C2=O` (stereo not given) [Lenalidomide] + Cc1cc(Nc2cc(N3CCN(C)CC3)nc(Sc3ccc(NC(=O)C4CC4)cc3)n2)n[nH]1 [Tozasertib] (partner 0.1 µM) had a relative viability of 0.431.
